Data on one compound can be found in patent US20240166596A1, “SULFAMOYL BENZENE DERIVATIVES AND USES THEREOF” (AphioTx Inc., priority 2021, published 2024).

Assay [1] relates to C57BL/6J mice. The assay is described as follows: Naloxone-precipitated morphine withdrawal, composite withdrawal score. The format is in vivo. The settings on record: 0.5 mg/kg, 30 minutes before withdrawal.
For another assay, the target named is T1, Panx1 channel (Mus musculus, UniProt Q9JIP4).
T1 construct: endogenous in cells; host or cells: BV-2 microglia-like cells
T1 sequence (Q9JIP4 whole entry): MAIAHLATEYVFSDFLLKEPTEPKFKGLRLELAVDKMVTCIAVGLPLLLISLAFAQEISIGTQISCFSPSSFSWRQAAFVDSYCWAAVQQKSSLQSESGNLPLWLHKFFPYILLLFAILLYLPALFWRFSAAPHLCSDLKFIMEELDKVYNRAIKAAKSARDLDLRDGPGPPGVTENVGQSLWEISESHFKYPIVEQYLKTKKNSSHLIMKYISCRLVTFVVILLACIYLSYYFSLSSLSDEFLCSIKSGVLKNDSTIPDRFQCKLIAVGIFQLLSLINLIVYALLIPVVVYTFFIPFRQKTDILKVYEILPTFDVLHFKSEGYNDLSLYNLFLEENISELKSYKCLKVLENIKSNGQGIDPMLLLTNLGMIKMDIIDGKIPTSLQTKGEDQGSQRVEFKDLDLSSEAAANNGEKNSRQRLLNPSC
The assay is described as follows: YO-PRO-1 dye uptake assay in BV-2 microglia-like cells (BzATP stimulation). The format is cell-based. The settings on record: BV-2 cells. As for the experimental part: After plating into 96 well plates, cell culture media was removed and BV-2 cells were incubated in extracellular solution (ECS) (140 mM NaCl, 4.5 mM KCl, 1.3 mM CaCl2, 10 mM HEPES, and 33 mM glucose; pH7.35, osmolarity 315 mOsm) containing YO-PRO-1 dye (2.5 μM, Invitrogen). After a 5 minute baseline recording, cells were stimulated with 3′-O-(4-benzoyl)benzoyl adenosine 5′-triphosphate (BzATP) (150 μM, Toronto Research Chemicals) and dye-uptake was recorded for 30 minutes. Cell viability was assessed immediately after the 30 minute recording by application of ionomycin (1 μM, Sigma). […] YO-PRO-1 fluorescent emission (491/509) was detected using a FilterMax F5 plate reader (Molecular Devices). Drugs used include (−)-norepinephrine (100 pM-1 μM, Sigma), probenecid (1 mM, Life Technologies), and Compound 1 (10 nM, Derksen et al). Drugs were bath applied in ECS containing YO-PRO-1 dye and incubated at 37° C. for 10 minutes prior to BzATP stimulation. Fluorescent emission at 30 minutes post-BzATP was calculated as an average of the entire imaging field as percent change from baseline, and responses at 30 minutes were averaged over multiple independent experiments. Individual traces of BV-2 YO-PRO-1 dye uptake were taken at 10 minute intervals and represent the average response of all BV-2 cells in the recorded view from a subset of experiments.
BV-2 microglia-like cells were maintained in DMEM (Gibco) containing 5% fetal bovine serum (Gibco) and 1% penicillin-streptomycin (Gibco) with 5% CO2.
The compounds tested were designed to more readily penetrate the blood brain barrier and were therefore predicted to require a lower dose to produce similar effects. Prior to testing the compounds in animals, the compounds were first tested in BV2 microglia-like cells using the YO-PRO-1 Dye Uptake Assay. By using this assay, Panx1 channel activity in response to BzATP stimulation of P2X7, an upstream receptor that causes Panx1 pore formation can be assessed. YO-PRO-1 is a large molecular weight dye that can only enter the cell through large pore ion channels such as Panx1, therefore its uptake correlates with Panx1 channel opening. BzATP stimulation causes a significant increase in YO-PRO-1 dye uptake in cells pre-treated with ECS and vehicle solution (0.1% DMSO) (FIG. 1, B).

For assay [2], the system named is C57BL/6J mice. Kind of assay: Naloxone-precipitated morphine withdrawal, composite withdrawal score. The class given is in vivo. The settings on record: for Withdrawal behaviors: 60 minutes prior to naloxone. The protocol: Adult male C57BL/6J (7-9 weeks) mice were used. Mice were housed under 12/12 hour light/dark cycles with ad libitum access to food and water. Mice were randomly allocated to different test groups. All experiments were approved by the University of Calgary Animal Care Committee and are in accordance with the guidelines of the Canadian Council on Animal Care.
Morphine sulfate (MS, PCCA) prepared in 0.9% sterile saline solution was injected i.p. into male C57BLJ6J (20-30g) mice. Mice received ascending doses of morphine (i.p.) at 8 hours intervals: day 1, 10mg/kg; day 2, 20 mg/kg; day 3, 30 mg/kg; day 4, 40mg/kg. On day 5, mice received a morning injection of morphine (50 mg/kg). A subset of mice received probenecid (15, 25, and 50 mg/kg i.p., Invitrogen) or Compound 1 (0.1, 0.5 and 1 mg/kg) 1 hour following morphine. Mice then received i.p. naloxone (2 mg/kg, naloxone hydrochloride dihydrate, Sigma) 2 hours following morphine to rapidly induce opioid withdrawal. Control mice received equivalent volumes of 0.9% saline or appropriate vehicle solution (0.1% DMSO in saline) and were challenged with naloxone on day 5. Withdrawal behaviors were then scored for 30 minutes post naloxone injection. Behaviors were scored for occurrence and then scaled for severity at 5-minute intervals. Behaviors that were assigned a standardized score between 0-3 depending on severity were jumping, headshakes, wet-dog shakes, chewing/licking, and teeth chattering. Behaviors that were scored 1 point for presence during a 5-minute interval include piloerection and tremors/twitching. The mice were then weighed following the 30 minutes, and the weight difference was assigned a standardized score dependent on the weight change between 0-3 as well. The scaled and present/absent signs were compiled over the 30 minutes to produce a composite withdrawal score.
All data are presented as the mean±standard error mean (s.e.m), and each circle represents an individual animal or experiment. Tests of statistical difference were performed with GraphPad Prism 6 using either an ordinary one-way ANOVA with posthoc Dunnet test, or a two-way ANOVA with post hoc Sidak test. Sample sizes are consistent with those reported in similar studies and provide sufficient power to detect changes with the appropriate statistical analysis. For all experiments, a criterion a level was set at 0.05.

Turning to `CCCN(CCC)S(=O)(=O)c1ccc(C(O)(C(F)(F)F)C(F)(F)F)cc1` [Compound 1, 4-(1,1,1,3,3,3-hexafluoro-2-hydroxypropan-2-yl)-N,N-dipropylbenzenesulfonamide], the Withdrawal behaviors result is “not effective” in the assay on C57BL/6J mice [1], “significantly attenuated” in the assay with C57BL/6J mice [2] (0.1 mg/kg), “significantly attenuated” with C57BL/6J mice [2] (0.5 mg/kg) and “significantly attenuated” with C57BL/6J mice [2] (1 mg/kg). The “Potency at inhibiting Panx1 channel opening relative to probenecid” value on Panx1 channel was “more potent than probenecid”. For the same compound, at Panx1 channel (Compound 1 10 nM vs probenecid 1 mM), the “Concentration blocking Panx1 channel activity, fold lower than probenecid” value is recorded as 100,000 fold. Also, the “Panx1 channel activity (BzATP-stimulated YO-PRO-1 dye uptake)” value on Panx1 channel (Compound 1 10 nM, 10 min pre-treatment, BzATP 150 μM, 30 min) is recorded as “significantly blocked”. Also, the “Effective dose, fold lower than probenecid” value with C57BL/6J mice [2] (0.1-1 mg/kg vs probenecid 50 mg/kg) is on record as 50-500 fold.
